The numbers were not newly measured in patent US20170121368A1, “NOVEL COMPOUNDS COMPRISING A BOMBESIN DERIVATIVE, A PROCESS FOR THE PREPARATION THEREOF AND A NUCLEAR MOLECULAR IMAGING AGENT COMPRISING THE SAME” (priority 2015, published 2017), which cites them from elsewhere.

No end group written: not given here.

This series has as its system human prostate cancer model. Particulars: 68Ga label, PET, human prostate cancer model in laboratory mice.

For “GRP: Gastrin-releasing peptide labeled with 68Ga, literature PET study (VPLPAGGGTVLTKMYPRGNHWAVGHLM-NH2; ends and bridges not checked; also: 68Ga radiolabel; UniProt P07492 24-50, looked up)”, the uptake rate was 9.5 % ID/g.
